Marks after values point to notes of the source that are not given here.
Columns and labels:
rat ER-α = rat ER-α (Rattus norvegicus (Rat), UniProt P06211); assay: cell-based
Experimental: Transactivation assays in agonist and antagonist modes were performed to identify whether the compound is an agonist, antagonist or a partial.
Sequencing was performed to determine the absence of any mutations. HEK-293 cells were plated at 100,000 cells per well of a 24 well plate in Dulbecco's Minimal Essential Media (DMEM) +5% charcoal-stripped fetal bovine serum (csFBS). The cells were transfected using Lipofectamine (Invitrogen, Carlsbad, Calif.) with 0.25 μg ERE-LUC, 0.02 μg CMV-LUC (renilla luciferase) and 12.5 ng of rat ER-α or 25 ng rat ER-β. […] Luciferase assays were performed 48 hrs after transfection.

[1] = molecular target: mineralocorticoids receptor (MR) (Rattus norvegicus (Rat), UniProt P22199); assay: Cross-reactivity transcriptional activation assay, MR; type: cell-based; details: agonist and antagonist modes
Chain of mineralocorticoids receptor (MR) (P22199 whole entry, canonical isoform): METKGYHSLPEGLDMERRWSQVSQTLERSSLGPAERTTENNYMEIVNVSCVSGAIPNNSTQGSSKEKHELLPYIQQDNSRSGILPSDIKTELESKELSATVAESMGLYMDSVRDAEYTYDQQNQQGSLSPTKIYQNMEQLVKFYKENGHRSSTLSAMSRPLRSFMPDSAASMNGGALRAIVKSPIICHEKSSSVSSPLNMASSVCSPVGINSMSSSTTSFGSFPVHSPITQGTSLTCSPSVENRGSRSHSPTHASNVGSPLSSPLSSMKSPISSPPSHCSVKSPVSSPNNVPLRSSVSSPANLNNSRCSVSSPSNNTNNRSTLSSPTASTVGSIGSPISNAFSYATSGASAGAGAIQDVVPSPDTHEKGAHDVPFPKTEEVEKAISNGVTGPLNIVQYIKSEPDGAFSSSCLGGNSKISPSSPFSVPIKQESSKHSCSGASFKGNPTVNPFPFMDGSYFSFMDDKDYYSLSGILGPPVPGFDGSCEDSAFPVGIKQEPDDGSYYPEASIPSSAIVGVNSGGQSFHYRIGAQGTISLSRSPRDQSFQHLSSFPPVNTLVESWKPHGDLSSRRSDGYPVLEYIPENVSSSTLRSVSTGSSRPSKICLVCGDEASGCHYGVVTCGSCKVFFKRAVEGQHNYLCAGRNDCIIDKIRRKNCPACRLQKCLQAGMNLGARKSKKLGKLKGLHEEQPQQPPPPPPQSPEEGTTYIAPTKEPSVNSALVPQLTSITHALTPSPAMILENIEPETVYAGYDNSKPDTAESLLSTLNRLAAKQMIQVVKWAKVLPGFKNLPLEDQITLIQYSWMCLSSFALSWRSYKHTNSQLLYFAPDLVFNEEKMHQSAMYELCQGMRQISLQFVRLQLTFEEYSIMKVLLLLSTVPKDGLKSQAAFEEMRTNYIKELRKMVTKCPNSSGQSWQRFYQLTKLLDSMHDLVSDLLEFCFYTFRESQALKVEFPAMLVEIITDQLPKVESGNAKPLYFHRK
Excerpt: (§1) Compound IV was screened for cross-reactivity against rat isoforms of glucocorticoid receptor (GR), mineralocorticoids receptor (MR), progesterone receptor (PR), androgen receptor (AR) and human isoforms of farnesoid X receptor (FXR), liver X receptor (LXR), peroxisome proliferator-activated receptors (PPAR-α and PPAR-γ), and retinoid X receptor (RXR-α) in both agonist and antagonist modes in transcriptional activation assays.

liver X receptor (LXR) = assay: Cross-reactivity transcriptional activation assay, LXR; type: cell-based, human; details: agonist and antagonist modes
Excerpt: as §1

[2] = Oral bioavailability in rats; type: in vivo
Experimental: Formulations using polyethylene glycol 300 (PEG300) generally produced higher exposures than microemulsions prepared in Tween 80 diluted in deionized water. […] Importantly, in dogs the exposure in the male 30 mg/kg PEG300 oral dose group exceeded the exposure necessary to produce the maximal effect on prostate reduction in the rat model of LH suppression.

[3] = test system: testosterone, prostate specific antigen (PSA), prostate volume and weight; assay: 39-week oral pharmacology and toxicology study in male cynomolgus monkey (13-week interim); details: for Mean serum PSA level / Percentage change of mean PSA levels compared to baseline: 4-week; for Percentage change of mean prostate volumes compared to baseline / Mean prostate volumes (ratio): 6-week; for Mean prostate volumes (ratio): TRUS, normalized to body weight; for Mean prostate weights at necropsy / Percentage change of mean prostate weights compared to baseline: 13-week
[4] = 1 mg/kg/day oral, Estimated final concentrations
[5] = 1 mg/kg/day oral, Quantifiable concentrations only
[6] = 10 mg/kg/day oral, Estimated final concentrations
[7] = 10 mg/kg/day oral, Quantifiable concentrations only
[8] = 100 mg/kg/day oral, Estimated final concentrations
[9] = 100 mg/kg/day oral, Quantifiable concentrations only
[10] = Day 1, 1 mg/kg/day oral, Estimated final concentrations
[11] = Day 1, 1 mg/kg/day oral, Quantifiable concentrations only
[12] = Day 1, 10 mg/kg/day oral, Estimated final concentrations
[13] = Day 1, 10 mg/kg/day oral, Quantifiable concentrations only
[14] = Day 1, 100 mg/kg/day oral, Estimated final concentrations
[15] = Day 1, 100 mg/kg/day oral, Quantifiable concentrations only
[16] = Day 3, 1 mg/kg/day oral, Estimated final concentrations
[17] = Day 3, 1 mg/kg/day oral, Quantifiable concentrations only
[18] = Day 3, 10 mg/kg/day oral, Estimated final concentrations
[19] = Day 3, 10 mg/kg/day oral, Quantifiable concentrations only
[20] = Day 3, 100 mg/kg/day oral, Estimated final concentrations
[21] = Day 3, 100 mg/kg/day oral, Quantifiable concentrations only
[22] = Day 7, 1 mg/kg/day oral, Estimated final concentrations
[23] = Day 7, 1 mg/kg/day oral, Quantifiable concentrations only

Chain of rat ER-α (P06211 whole entry): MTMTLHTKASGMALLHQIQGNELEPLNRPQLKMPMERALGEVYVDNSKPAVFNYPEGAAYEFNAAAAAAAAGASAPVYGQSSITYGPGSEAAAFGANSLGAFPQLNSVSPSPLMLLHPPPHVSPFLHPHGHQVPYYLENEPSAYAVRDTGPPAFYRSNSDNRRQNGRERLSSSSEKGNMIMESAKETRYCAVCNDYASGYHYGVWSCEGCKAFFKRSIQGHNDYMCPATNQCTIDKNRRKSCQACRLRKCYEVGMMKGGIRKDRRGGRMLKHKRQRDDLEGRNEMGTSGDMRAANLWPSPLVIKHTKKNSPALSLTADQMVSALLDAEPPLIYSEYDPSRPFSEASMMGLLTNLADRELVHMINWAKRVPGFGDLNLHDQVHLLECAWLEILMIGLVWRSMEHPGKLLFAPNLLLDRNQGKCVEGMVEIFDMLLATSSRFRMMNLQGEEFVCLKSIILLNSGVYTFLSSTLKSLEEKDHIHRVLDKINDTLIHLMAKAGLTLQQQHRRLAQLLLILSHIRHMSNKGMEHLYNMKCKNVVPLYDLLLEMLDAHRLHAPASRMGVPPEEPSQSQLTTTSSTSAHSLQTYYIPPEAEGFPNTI

Structure (SMILES): O=C(c1ccc(O)c(F)c1)N(c1ccc(O)cc1)c1ccc(F)cc1 [Compound IV, 3-fluoro-N-(4-fluorophenyl)-4-hydroxy-N-(4-hydroxyphenyl)benzamide]
- ERα activity in transient transfection assays (rat ER-α): agonist
- selectivity for ERα over ERβ in transcriptional activation (rat ER-α): 49.0 fold
- antagonist effects on estradiol-stimulated transcriptional activation (rat ER-α; estradiol 1 nM, concentrations up to 10 μM): no antagonist effects were observed
- relative selectivity in transactivation potency for ERα over ERβ (rat ER-α; normalized to estradiol values): 9.7 fold
- agonist or antagonist activity [1]: did not display any agonist or antagonist activity
- agonist or antagonist activity (liver X receptor (LXR)): did not display any agonist or antagonist activity
- absorption following oral dosing [2]: rapidly absorbed
- bioavailability ([2]; rat, in vivo, po, depending on the formulation): 6 to 25%
- PSA reduction (in mean) ([3]; 10 mg/kg for 4 weeks): 69%
- PSA reduction (in mean) ([3]; 100 mg/kg for 4 weeks): 87%
- body weight reduction ([3]; 100 mg/kg, 91 days (FIG. 14)): ~20%
- Mean serum PSA level [3, 4]: 0.9 ng/mL
- Percentage change of mean PSA levels compared to baseline [3, 4]: −11%
- Mean serum PSA level [3, 5]: 0.9 ng/mL
- Percentage change of mean PSA levels compared to baseline [3, 5]: −11%
- Mean serum PSA level [3, 6]: 0.3* ng/mL
- Percentage change of mean PSA levels compared to baseline [3, 6]: −69%
- Mean serum PSA level [3, 7]: 0.3 ng/mL
- Percentage change of mean PSA levels compared to baseline [3, 7]: −64%
- Mean serum PSA level [3, 8]: 0.1^& ng/mL
- Percentage change of mean PSA levels compared to baseline [3, 8]: −87%
- Mean serum PSA level [3, 9]: 0.3 ng/mL
- Percentage change of mean PSA levels compared to baseline [3, 9]: −72%
- Percentage change of mean prostate volumes compared to baseline ([3]; 1 mg/kg/day oral): 6.8%
- Mean prostate volumes (ratio) ([3]; 1 mg/kg/day oral): 468
- Percentage change of mean prostate volumes compared to baseline ([3]; 10 mg/kg/day oral): −25%
- Mean prostate volumes (ratio) ([3]; 10 mg/kg/day oral): 327
- Percentage change of mean prostate volumes compared to baseline ([3]; 100 mg/kg/day oral): −45%
- Mean prostate volumes (ratio) ([3]; 100 mg/kg/day oral): 242
- Mean prostate weights at necropsy ([3]; 1 mg/kg/day oral): 1.8 grams
- Percentage change of mean prostate weights compared to baseline ([3]; 1 mg/kg/day oral): 1.7%
- Mean prostate weights at necropsy ([3]; 10 mg/kg/day oral): 1.3 grams
- Percentage change of mean prostate weights compared to baseline ([3]; 10 mg/kg/day oral): −24%
- Mean prostate weights at necropsy ([3]; 100 mg/kg/day oral): 1.4 grams
- Percentage change of mean prostate weights compared to baseline ([3]; 100 mg/kg/day oral): −21%
- gynecomastia or hyperestrogenicity ([3]; 91 days (FIG. 14)): No sign of gynecomastia or hyperestrogenicity
- Mean serum testosterone level [3, 10]: 11 ng/mL
- Percentage change of mean serum testosterone levels compared to baseline [3, 10]: 44%
- Mean serum testosterone level [3, 11]: 11 ng/mL
- Percentage change of mean testosterone levels compared to baseline [3, 11]: 44%
- Mean serum testosterone level [3, 12]: 7.6 ng/mL
- Percentage change of mean serum testosterone levels compared to baseline [3, 12]: 54%
- Mean serum testosterone level [3, 13]: 7.6 ng/mL
- Percentage change of mean testosterone levels compared to baseline [3, 13]: 54%
- Mean serum testosterone level [3, 14]: 8.0 ng/mL
- Percentage change of mean serum testosterone levels compared to baseline [3, 14]: 82%
- Mean serum testosterone level [3, 15]: 8.0 ng/mL
- Percentage change of mean testosterone levels compared to baseline [3, 15]: 82%
- Mean serum testosterone level [3, 16]: 7.4 ng/mL
- Percentage change of mean serum testosterone levels compared to baseline [3, 16]: 1.8%
- Mean serum testosterone level [3, 17]: 7.4 ng/mL
- Percentage change of mean testosterone levels compared to baseline [3, 17]: 1.8%
- Mean serum testosterone level [3, 18]: 5.1 ng/mL
- Percentage change of mean serum testosterone levels compared to baseline [3, 18]: 3.5%
- Mean serum testosterone level [3, 19]: 5.1 ng/mL
- Percentage change of mean testosterone levels compared to baseline [3, 19]: 3.5%
- suppression of serum testosterone relative to the baseline value ([3]; Day 3, 100 mg/kg/day oral): 60%
- Mean serum testosterone level [3, 20]: 1.8* ng/mL
- Percentage change of mean serum testosterone levels compared to baseline [3, 20]: −60%
- Mean serum testosterone level [3, 21]: 1.8 ng/mL
- Percentage change of mean testosterone levels compared to baseline [3, 21]: −60%
- Mean serum testosterone level [3, 22]: 6.7 ng/mL
- Percentage change of mean serum testosterone levels compared to baseline [3, 22]: −8.1%
- Mean serum testosterone level [3, 23]: 6.7 ng/mL
- Percentage change of mean testosterone levels compared to baseline [3, 23]: −8.1%
- Mean serum testosterone level ([3]; Day 7, 10 mg/kg/day oral, Estimated final concentrations): 7.7 ng/mL
